In brackets after ≈: the same amount, converted by molar mass.
tested on: KB cells (human nasopharyngeal cells); experiment: In vitro antineoplastic test on KB cells (MTT, 3 days); type: cell-based; settings: 72 h, KB cells in vitro, 37° C. for three days, MTT, read-out: IC50
Description: In vitro antineoplastic test on KB cells (human nasopharyngeal cells):
1.25×10^3 (0.1 ml) of KB cells suspended in a RPMI 1640 medium (a product of Nissui Seiyaku Co., Ltd.) containing 20% of bovine fetus serum, penicillin (100 units/ml), streptomycin (100 μg/ml), mercaptoethanol (5×10^-5 M) and sodium pyruvate (1 mM) were placed in each hole of a 96-hole flat-bottom microplate and cultured in an incubator containing 5% of carbon dioxide at 37° C. for one day.
This concentration was the maximum one, which was subjected to two-fold serial dilution with 0.1% bovine fetus serum RPMI 1640 culture liquid containing 0.5% of dimethyl sulfoxide. It was added to the KB cells in each hole of the above-described culture plate in an amount of 0.1 ml and cultured in an incubator containing 5% of carbon dioxide at 37° C. for three days.
After the completion of the culture, 0.05 ml of MTT [3-(4,5-dimethylthiazol-2-yl)-2,5-diphenyltetrazolium bromide] solution (3.3 mg/ml) was added to each hole and the culture was conducted for an additional 1 h. The supernatant liquid was removed from each hole by suction and a formazan thus formed was dissolved in 0.1 ml of dimethyl sulfoxide. The absorbance at 540 nm was determined with a microplate reader to use as an index of a viable count. A percentage inhibition was calculated according to the following formula and the concentration of the test compound for 50% inhibition (IC50) was determined.
Percentage inhibition (%)=(C-T)/C×100
T: absorbance of the hole containing the test compound
C: absorbance of the hole containing no test compound

SMILES	IC50 [µg/mL]
COc1ccc(S(=O)(=O)Nc2cccnc2Nc2ccc(Oc3ccccc3)cc2)cc1 [Example 40, 4-Methoxy-N-[2-[(4-phenoxyphenyl)amino]-3-pyridyl]benzenesulfonamide]	2.1 (≈ 4.69 µM)
COc1ccc(S(=O)(=O)Nc2cccnc2Nc2ccccc2OC)cc1 [Example 16, 4-Methoxy-N-[2-[(2-methoxyphenyl)amino]-3-pyridyl]benzenesulfonamide]	1.5 (≈ 3.89 µM)
COc1ccc(S(=O)(=O)Nc2cccnc2Nc2cccc(OC)c2)cc1 [Example 13, 4-Methoxy-N-[2-[(3-methoxyphenyl)amino]-3-pyridyl]benzenesulfonamide]	2.6 (≈ 6.75 µM)
COc1ccc(S(=O)(=O)Nc2cccnc2Nc2ccc(F)cc2)cc1 [Example 11, N-[2-[(4-Fluorophenyl)amino]-3-pyridyl]-4-methoxybenzenesulfonamide]	0.33 (≈ 0.884 µM)
COc1ccc(S(=O)(=O)Nc2c(Nc3ccccc3)ncnc2OC)cc1 [Example 47, N-(4-Anilino-6-methoxy-5-pyrimidyl)-4-methoxybenzenesulfonamide]	2.6 (≈ 6.73 µM)
COc1ccc(S(=O)(=O)Nc2cccnc2Nc2cccc(O)c2)cc1 [Example 34, N-[2-[(3-Hydroxyphenyl)amino]-3-pyridyl]-4-methoxybenzenesulfonamide]	0.11 (≈ 0.296 µM)
COc1ccc(S(=O)(=O)Nc2ccccc2Nc2ccc(O)cc2)cc1 [Example 67, N-[2-[(4-Hydroxyphenyl)amino]phenyl]-4-methoxybenzenesulfonamide]	1.4 (≈ 3.78 µM)
COc1ccc(S(=O)(=O)Nc2cccnc2Nc2ccccc2O)cc1 [Example 43, N-[2-[(2-Hydroxyphenyl)amino]-3-pyridyl]-4-methoxybenzenesulfonamide]	0.26 (≈ 0.7 µM)
COc1ccc(S(=O)(=O)Nc2cccnc2Nc2ccccc2C)cc1 [Example 18, 4-Methoxy-N-[2-[2(2-methylphenyl)amino]-3-pyridyl]benzenesulfonamide]	0.73 (≈ 1.98 µM)
COc1ccc(S(=O)(=O)Nc2ccccc2Nc2ccccc2)cc1 [Example 58, N-(2-Anilinophenyl)-4-methoxybenzenesulfonamide]	1.2 (≈ 3.39 µM)
COc1ccc(S(=O)(=O)Nc2ccccc2Nc2ncccn2)cc1 [Example 57, 4-Methoxy-N-[2-[(2-pyrimidyl)amino]phenyl]benzenesulfonamide]	0.17 (≈ 0.477 µM)
COc1ccc(S(=O)(=O)Nc2cccnc2Nc2ccc(Cl)cc2)cc1 [Example 42, N-[2-[(4-Chlorophenyl)amino]-3-pyridyl]-4-methoxybenzenesulfonamide]	0.59 (≈ 1.51 µM)
COc1ccc(S(=O)(=O)Nc2cccnc2Nc2cccc(OP(=O)(O)O)c2)cc1 [Example 65, 3-[[3-(4-Methoxybenzenesulfonamido)-2-pyridyl]amino]phenyl dihydrogenphosphate]	0.2 (≈ 0.443 µM)
COc1ccc(S(=O)(=O)Nc2cccnc2Nc2ccc(OP(=O)(O)O)cc2)cc1 [Example 64, 4-[[3-(4-Methoxybenzenesulfonamido)-2-pyridyl]amino]phenyl dihydrogenphosphate]	0.55 (≈ 1.22 µM)
CCOc1ccc(Nc2ncccc2NS(=O)(=O)c2ccc(OC)cc2)cc1 [Example 35, N-[2-[(4-Ethoxyphenyl)amino]-3-pyridyl]-4-methoxybenzenesulfonamide]	0.45 (≈ 1.13 µM)
COc1ccc(S(=O)(=O)Nc2cccnc2Nc2ccc(OC(=O)c3ccccc3)cc2)cc1 [Example 59, N-[2-[(4-Benzoyloxyphenyl)amino]-3-pyridyl]-4-methoxybenzenesulfonamide]	0.18 (≈ 0.379 µM)
COCOc1ccc(Nc2ncccc2NS(=O)(=O)c2ccc(OC)cc2)cc1 [Example 5, 4-Methoxy-N-[2-[(4-methoxymethyloxyphenyl)amino]-3-pyridyl-]benzenesulfonamide]	0.73 (≈ 1.76 µM)
COc1ccc(S(=O)(=O)Nc2cccnc2Nc2ccc(O)c(C)c2)cc1 [Example 36, N-[2-[(4-hydroxy-3-methylphenyl)amino]-3-pyridyl]-4-methoxybenzenesulfonamide]	0.72 (≈ 1.87 µM)
COc1ccc(S(=O)(=O)Nc2cccnc2Nc2cccc(C)c2)cc1 [Example 17, 4-Methoxy-N-[2-[(3-methylphenyl)amino]-3-pyridyl]benzenesulfonamide]	0.94 (≈ 2.54 µM)
COc1ccc(Nc2ncccc2N(C)S(=O)(=O)c2ccc(OC)cc2)cc1 [Example 62, 4-Methoxy-N-[2-[(4-methoxyphenyl)amino]-3-pyridyl]-N-methylbenzenesulfonamide]	0.53 (≈ 1.33 µM)
COc1ccc(S(=O)(=O)Nc2cccnc2Nc2ccc(OC(=O)CN)cc2)cc1.Cl.Cl [Example 61, N-[2-[[4-(Aminoacetyloxy)phenyl]amino]-3-pyridyl]-4-methoxybenzenesulfonamide dihydrochloride]	0.83
COc1ccc(S(=O)(=O)Nc2cccnc2Nc2ccc(C)cc2)cc1 [Example 8, 4-Methoxy-N-[2-[(4-methylphenyl)amino]-3-pyridyl]benzenesulfonamide]	0.89 (≈ 2.41 µM)
COc1ccc(S(=O)(=O)Nc2cccnc2Nc2cccc(F)c2)cc1 [Example 10, N-[2-[(3-Fluorophenyl)amino]-3-pyridyl]-4-methoxybenzenesulfonamide]	0.21 (≈ 0.562 µM)
COc1ccc(S(=O)(=O)Nc2ccc(OC)nc2Nc2ccccc2)cc1 [Example 54, N-(2-Anilino-6-methoxy-3-pyridyl)-4-methoxybenzene sulfonamide]	0.54 (≈ 1.4 µM)

Further lines, results first:

IC50 [µg/mL]	SMILES
0.15 (≈ 0.36 µM)	COc1ccc(S(=O)(=O)Nc2ccccc2NC(=S)c2ccc(F)cc2)cc1 [Example 97, 4-Fluoro-N-[2-(4-methoxybenzenesulfonamido)phenyl]benzothioamide]
0.045 (≈ 0.114 µM)	COc1ccc(S(=O)(=O)Nc2ccccc2NC(=O)c2ccccc2C)cc1 [Example 95, N-[2-(4-Methoxybenzenesulfonamido)phenyl]-2-methylbenzamide]
0.3 (≈ 0.778 µM)	Nc1ccc(S(=O)(=O)Nc2ccccc2NC(=O)c2ccc(F)cc2)cc1 [Example 106, N-[2-(4-Aminobenzenesulfonamido)phenyl]-4-fluorobenzamide]
0.099 (≈ 0.283 µM)	CCNC(=O)Nc1ccccc1NS(=O)(=O)c1ccc(OC)cc1 [Example 104, N-[2-[(Ethylaminocarbonyl)amino]phenyl]-4-methoxybenzenesulfonamide]
0.11 (≈ 0.277 µM)	COc1ccc(S(=O)(=O)Nc2ccccc2NC(=O)c2cnccc2C)cc1 [Example 71, N-[2-(4-Methoxybenzenesulfonamido)phenyl]-4-methylnicotinamide]
0.17 (≈ 0.373 µM)	COc1ccc(S(=O)(=O)Nc2cccnc2Nc2ccc(OC(=O)C(C)(C)C)cc2)cc1 [Example 68, 4-Methoxy-N-[2-[(4-pivaloyloxyphenyl)amino]-3-pyridyl]benzenesulfonamide]
0.079 (≈ 0.197 µM)	COc1ccc(S(=O)(=O)Nc2ccc(F)cc2NC(=O)c2ccccc2)cc1 [Example 98, N-[5-fluoro-2-(4-methoxybenzenesulfonamido)phenyl]benzamide]
0.079 (≈ 0.199 µM)	COc1ccc(S(=O)(=O)Nc2cccc(C)c2NC(=O)c2ccncc2)cc1 [Example 91, N-[2-(4-Methoxybenzenesulfonamido)-6-methylphenyl]isonicotinamide]
0.026 (≈ 0.0649 µM)	COc1ccc(S(=O)(=O)Nc2ccccc2NC(=O)c2ccc(F)cc2)cc1 [Example 82, 4-Fluoro-N-[2-(4-methoxybenzenesulfonamido)phenyl]benzamide]
0.01 (≈ 0.0261 µM)	COc1ccc(S(=O)(=O)Nc2ccccc2NC(=O)c2ccncc2)cc1 [Example 88, N-[2-(4-Methoxybenzenesulfonamido)phenyl]isonicotinamide]
